How the values were obtained:
[1] = biological target: TPO (produced in insect cells, RSR Ltd) (Homo sapiens (Human), UniProt P07202); experiment: TPO activity (IC50), luminol chemiluminescence assay; type: biochemical; conditions: PBS pH7.4, luminol 100 μM, H2O2 50 μM, chemiluminescence recorded after 15 minutes
Procedure: (§1) The experiments were performed in phosphate-buffered saline (PBS), pH7.4. A 10 mM luminol (A4695, Sigma Aldrich, St Louis, MO, USA) stock was prepared in distilled water and further diluted in PBS to a final concentration of 100 μM. H2O2 was prepared as 1 mM stock in PBS, yielding a final concentration of 50 μM after addition into the assay. The compounds were serially diluted in DMSO in a separate plate as a 100× stock solution, and MPO (purified from HL60 cells) and TPO (produced in insect cells, RSR Ltd, Cardiff, UK), were diluted to yield a final concentration of approximately 14 and 150 ng/mL, generating 5600 and 9300 light counts per seconds (LCPS) upon incubation with luminol.
(§2) The experiment was run by pipetting 2 μL 100× stock solution of the compound and 200 μL diluted enzyme in PBS into wells in a 96-well Optiplate (6005290, Perkin Elmer/Thermo Fischer, Waltham, MS, USA), followed by addition of 10 μL H2O2 containing PBS. Chemiluminescence measurement (Perkin Elmer Wallac Microbeta Trilux 1450-029 (12-detector), Turkuu, Finland) was started directly and recorded after 2, 10 and 15 minutes.

[2] = biological target: MPO (purified from HL60 cells) (Homo sapiens (Human), UniProt P05164); experiment: MPO activity (IC50), luminol chemiluminescence assay; type: biochemical; conditions: PBS pH7.4, luminol 100 μM, H2O2 50 μM, chemiluminescence recorded after 15 minutes
Procedure: as §1, §2

Sequence of MPO (purified from HL60 cells) (P05164 49-745): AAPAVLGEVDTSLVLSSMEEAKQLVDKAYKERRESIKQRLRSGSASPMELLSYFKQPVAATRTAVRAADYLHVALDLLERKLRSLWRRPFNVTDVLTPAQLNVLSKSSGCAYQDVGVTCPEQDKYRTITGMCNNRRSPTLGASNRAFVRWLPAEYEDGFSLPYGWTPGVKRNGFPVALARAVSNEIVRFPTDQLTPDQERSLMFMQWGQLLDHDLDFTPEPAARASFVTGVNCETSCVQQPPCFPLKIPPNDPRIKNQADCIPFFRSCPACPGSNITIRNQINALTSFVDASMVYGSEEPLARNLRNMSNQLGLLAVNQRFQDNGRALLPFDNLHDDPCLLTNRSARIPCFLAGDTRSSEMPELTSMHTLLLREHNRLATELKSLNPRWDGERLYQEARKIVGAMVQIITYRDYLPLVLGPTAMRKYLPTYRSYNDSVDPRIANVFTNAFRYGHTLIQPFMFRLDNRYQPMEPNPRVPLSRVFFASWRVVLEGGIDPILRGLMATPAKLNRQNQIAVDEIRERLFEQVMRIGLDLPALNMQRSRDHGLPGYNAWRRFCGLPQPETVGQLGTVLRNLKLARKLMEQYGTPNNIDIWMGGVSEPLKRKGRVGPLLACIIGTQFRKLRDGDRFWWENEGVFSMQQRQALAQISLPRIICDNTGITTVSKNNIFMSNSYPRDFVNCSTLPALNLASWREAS
Sequence of TPO (produced in insect cells, RSR Ltd) (P07202 19-933): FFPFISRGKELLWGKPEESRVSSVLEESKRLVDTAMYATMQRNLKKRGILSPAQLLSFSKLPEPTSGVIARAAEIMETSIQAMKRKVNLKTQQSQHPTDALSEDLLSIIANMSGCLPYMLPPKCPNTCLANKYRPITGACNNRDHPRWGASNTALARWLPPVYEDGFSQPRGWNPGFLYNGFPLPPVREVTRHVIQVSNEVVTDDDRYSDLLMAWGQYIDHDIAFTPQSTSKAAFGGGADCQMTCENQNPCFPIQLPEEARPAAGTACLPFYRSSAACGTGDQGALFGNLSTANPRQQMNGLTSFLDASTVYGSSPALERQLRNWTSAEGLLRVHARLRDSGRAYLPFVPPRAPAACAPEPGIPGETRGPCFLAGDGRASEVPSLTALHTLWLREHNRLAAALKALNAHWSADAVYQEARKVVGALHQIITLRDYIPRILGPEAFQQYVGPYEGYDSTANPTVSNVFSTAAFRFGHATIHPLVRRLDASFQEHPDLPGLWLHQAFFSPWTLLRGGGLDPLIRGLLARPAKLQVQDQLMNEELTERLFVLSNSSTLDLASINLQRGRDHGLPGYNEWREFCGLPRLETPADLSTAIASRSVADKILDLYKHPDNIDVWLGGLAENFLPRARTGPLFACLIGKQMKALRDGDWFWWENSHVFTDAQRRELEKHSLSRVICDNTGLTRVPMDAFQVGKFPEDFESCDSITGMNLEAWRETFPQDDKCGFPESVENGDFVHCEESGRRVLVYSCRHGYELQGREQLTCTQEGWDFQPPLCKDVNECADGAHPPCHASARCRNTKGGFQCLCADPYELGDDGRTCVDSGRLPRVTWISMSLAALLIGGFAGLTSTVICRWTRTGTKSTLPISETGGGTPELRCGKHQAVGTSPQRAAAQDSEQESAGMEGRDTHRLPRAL

Row | SMILES | IC50 [1] [nM] | IC50 [2] [nM]
1 | O=c1[nH]c(=S)n(Cc2ccccc2[C@H]2CNCCO2)c2cc[nH]c12 (single isomer, unassigned) [Example 29] | 540 | 15
2 | O=c1[nH]c(=S)n(Cc2ccccc2C2CCC(F)CN2)c2nc[nH]c12 (stereo not drawn) [Example 15, 3-(2-(5-Fluoropiperidin-2-yl)benzyl)-2-thioxo-1,2,3,7-tetrahydro-6H-purin-6-one] | 540 | 16
3 | NC1(c2ccc(Cn3c(=S)[nH]c(=O)c4[nH]ccc43)cc2)CCC1 [Example 24, 1-(4-(1-Aminocyclobutyl)benzyl)-2-thioxo-1,2,3,5-tetrahydro-4H-pyrrolo[3,2-d]pyrimidin-4-one] | 560 | 12
4 | CN1CCNC(c2ccccc2Cn2c(=S)[nH]c(=O)c3[nH]ccc32)C1 (stereo not drawn) [Example 9, 1-(2-(4-Methylpiperazin-2-yl)benzyl)-2-thioxo-1,2,3,5-tetrahydro-4H-pyrrolo[3,2-d]pyrimidin-4-one] | 1270 | 10.1
5 | O=c1[nH]c(=S)n(Cc2cccc3c2CNC3)c2cc[nH]c12 [Example 26, 1-(Isoindolin-4-ylmethyl)-2-thioxo-1,2,3,5-tetrahydro-4H-pyrrolo[3,2-d]pyrimidin-4-one] | 840 | 13
6 | O=c1[nH]c(=S)n(Cc2ccccc2[C@H]2CCCCN2)c2cc[nH]c12 (single isomer, unassigned) [Example 1b] | 850 | 2.1
7 | O=c1[nH]c(=S)n(Cc2cccc3c2CNCC3)c2cc[nH]c12 [Example 23, 1-((1,2,3,4-Tetrahydroisoquinolin-8-yl)methyl)-2-thioxo-1,2,3,5-tetrahydro-4H-pyrrolo[3,2-d]pyrimidin-4-one] | 380 | 10
8 | O=c1[nH]c(=S)n(Cc2ccc(Cl)cc2C2COCCN2)c2nc[nH]c12 (stereo not drawn) [Example 5, 3-(4-Chloro-2-(morpholin-3-yl)benzyl)-2-thioxo-1,2,3,7-tetrahydro-6H-purin-6-one] | 1680 | 194
9 | O=c1[nH]c(=S)n(Cc2ccccc2[C@@H]2COCCN2)c2cc[nH]c12 [Example 8, (R)-1-(2-(Morpholin-3-yl)benzyl)-2-thioxo-1,2,3,5-tetrahydro-4H-pyrrolo[3,2-d]pyrimidin-4-one] | 930 | 67

Next, values leading:

Row | IC50 [1] [nM] | IC50 [2] [nM] | SMILES
10 | 430 | 1.5 | O=c1[nH]c(=S)n(Cc2ccccc2[C@H]2C[C@@H](C(F)(F)F)CCN2)c2cc[nH]c12 (single isomer, unassigned) [Example 10b]
11 | 410 | 2.7 | O=c1[nH]c(=S)n(Cc2ccccc2[C@H]2C[C@H](C(F)(F)F)CCN2)c2nc[nH]c12 (single isomer, unassigned) [Example 18b]
12 | 1760 | 11.9 | O=c1[nH]c(=S)n(Cc2ccccc2[C@H]2C[C@@H](C(F)F)CCN2)c2cc[nH]c12 (single isomer, unassigned) [Example 19a]
13 | 1200 | 6 | O=c1[nH]c(=S)n(Cc2ccccc2[C@H]2C[C@@H](C(F)(F)F)CCN2)c2cc[nH]c12 (single isomer, unassigned) [Example 10a]
14 | 570 | 1.3 | O=c1[nH]c(=S)n(Cc2ccccc2[C@H]2C[C@@H](C(F)F)CCN2)c2cc[nH]c12 (single isomer, unassigned) [Example 19b]
15 | 1700 | 30 | O=c1[nH]c(=S)n(Cc2cccnc2[C@H]2C[C@H](C(F)(F)F)CCN2)c2cc[nH]c12 (single isomer, unassigned) [Example 31a]

Reference: US20240166642A1, “INHIBITORS OF MYELOPEROXIDASE” (ASTRAZENECA AB, priority 2022, published 2024)
